According to the CheMixHub viscosity set:

Assay: xn = mol fraction of the nth substance listed

CN(C)CCCN + O
viscosity [mPa·s]
Conditions	293.15 K	303.15 K	308.15 K	313.15 K	318.15 K	323.15 K
100 kPa, x1 = 0.1	8.105	5.084	–	3.421	–	2.362
100 kPa, x1 = 0.1998	13.62	8.093	–	5.329	–	3.605
100 kPa, x1 = 0.2998	11.49	7.049	–	4.586	–	3.142
100 kPa, x1 = 0.4004	7.437	4.84	–	3.296	–	2.359
100 kPa, x1 = 0.5003	4.661	3.222	–	2.339	–	1.759
100 kPa, x1 = 0.5989	3.168	2.25	–	1.781	–	1.363
100 kPa, x1 = 0.6992	2.225	1.7	–	1.333	–	1.076
100 kPa, x1 = 0.8005	1.691	1.294	–	1.046	–	0.8667
100 kPa, x1 = 0.8999	1.327	1.07	–	0.8872	–	0.75
101 kPa, x1 = 0.0488	–	2.376	–	–	–	–
101 kPa, x1 = 0.0996	–	4.856	3.946	3.263	2.739	2.323
101 kPa, x1 = 0.0999	–	5.01	–	–	–	–
101 kPa, x1 = 0.147	–	7.175	–	–	–	–
101 kPa, x1 = 0.1504	–	7.078	5.637	4.578	3.791	3.16
101 kPa, x1 = 0.1743	–	7.96	–	–	–	–
101 kPa, x1 = 0.1994	–	8.356	6.623	5.341	4.372	3.624
101 kPa, x1 = 0.1999	–	8.348	–	–	–	–
101 kPa, x1 = 0.2247	–	8.378	–	–	–	–
101 kPa, x1 = 0.2497	–	8.194	–	–	–	–
101 kPa, x1 = 0.2521	–	8.394	6.631	5.351	4.383	3.636
101 kPa, x1 = 0.2744	–	7.787	–	–	–	–
101 kPa, x1 = 0.2995	–	7.688	6.133	4.967	4.089	3.402
101 kPa, x1 = 0.2998	–	7.275	–	–	–	–
101 kPa, x1 = 0.3809	–	6.001	4.861	4.005	3.354	2.831
101 kPa, x1 = 0.5	–	3.919	3.282	2.77	2.372	2.049
101 kPa, x1 = 0.5994	–	2.525	2.116	1.884	1.65	1.461
101 kPa, x1 = 0.6826	–	1.939	1.701	1.502	1.339	1.201
101 kPa, x1 = 0.7798	–	1.492	1.329	1.191	1.077	0.9811
101 kPa, x1 = 0.8918	–	1.163	1.042	0.9578	0.8777	0.8099
